Patent publication US20250360160A1, “NEW MEDICAL USE OF TAFOXIPARIN” (DILAFOR AB, priority 2022, published 2025)

Test system: term pregnant, nulliparous women with an unripe cervix
Assay: Clinical phase II trial PPL17 (Parts A and B), subcutaneous tafoxiparin vs placebo
Assay type: in vivo, human
Details: for Labor induced with PGE-1, percent of subjects: placebo 10.2%; for Fetal distress as indication for operative delivery (ODFD), percent of patients: placebo 22.7%; for Percent of patients with operative delivery / proportion of women needing instrumental delivery: placebo 45.5%; for Labor induced with oxytocin, percent of subjects / proportion of women reaching spontaneous onset of labor with uncomplicated delivery: placebo 54.5%; for Labor induced with amniotomy, percent of subjects: placebo 56.8%; for Labor induction with Balloon catheter, percent of subjects: placebo 58.0%; for Labor induced, percent of subjects: placebo 70.5%; for number of women needing instrumental delivery: spontaneous onset of labor; for proportion reaching partus by vaginal delivery with no need for instrumental delivery nor caesarian section: placebo 48%; for proportion reaching partus by vaginal delivery with no need for instrumental delivery nor caesarian section / proportion of women needing instrumental delivery or caesarian section to reach partus: FIG. 5; for proportion of women needing instrumental delivery or caesarian section to reach partus: placebo 52%; for proportion of women needing instrumental delivery: vaginal mode of partus, FIG. 4; for number of subjects (women) that reach spontaneous onset of labor / percent of subjects (women) that reach spontaneous onset of labor: n=37
Experimental: A clinical phase II trial is performed as a randomized, double-blind, placebo-controlled, parallel-group proof of concept study (Part A) with a conditional dose finding follow up study (Part B) to evaluate the efficacy, safety, tolerability and dose response of subcutaneously administered tafoxiparin as a supplement to induction therapy in term pregnant, nulliparous women with an unripe cervix. The study is performed in Sweden and Finland (PPL17), and an EMA (European Medicines Agency) description of the study can be found on the EU Clinical Trials Register web (www.clinicaltrialsregister.eu/ctr-search/search?query=PPL17).
A total of 170 term pregnant women are randomized to receive either 300 mg of tafoxiparin, or corresponding placebo (vehicle), administered subcutaneously every 24±3 hours and up to a total of 7 doses, or until partus (Part A).
In the dose finding follow up study (Part B), a total of 164 term pregnant women are randomized to receive either 75 or 150 mg of tafoxiparin administered subcutaneously every 24±3 hours […] and up to a total of 7 doses, or until partus.
To assess the efficacy of tafoxiparin on cervical ripening/cervical ripening rate, during and up to the first seven days of treatment, measured by Bishop score. All women must be examined to check the cervical state before enrollment.
Time from start of treatment to increase in Bishop score of ≥2 points or spontaneous onset of labor, whichever comes first. Time from start of treatment to increase in Bishop score of ≥3 points or spontaneous onset of labor, whichever comes first. Time from start of treatment to increase in Bishop score of ≥4 points or spontaneous onset of labor, whichever comes first.
Cervical ripening as measured by change from baseline to end of treatment in Bishop Score. Time from onset of labor to partus, where onset of labor is defined as last record of 4 cm cervical dilatation visualized in the partogram and progress of labor, or last record of 4 cm of cervical dilatation in combination with amniotomy and intravenous administration oxytocin.
Proportion of women with spontaneous onset of labor (Response group I).
Tafoxiparin/Placebo is supplied by Dilafor AB to the site as kits designed to constitute 300 mg of tafoxiparin or placebo for daily administration. Apart from the active substance, each ml of study drug will constitute 0.015 M phosphate buffer. The study medication kit for each patient will contain 8 doses consisting of 2 vials containing a minimum extractable volume of 1.6 ml of 150 mg/ml of tafoxiparin or placebo. One dose is a reserve dose in case a dose is rendered unusable. The investigational product should be administered subcutaneously every 24±3hours by the site staff for up to 7 doses, or until partus. At each dosing time 1.0 ml of the drug will be extracted from each of the 2 vials and injected as separate s.c. injections in the abdominal or hip region.
Tafoxiparin/Placebo is supplied by Dilafor AB to the site as kits designed to constitute 75 or 150 mg of tafoxiparin for daily administration. Apart from the active substance, each ml of study drug will constitute 0.015 M phosphate buffer. The study medication kit for each patient will contain 8 doses consisting of 2 vials for each injection occasion containing a minimum extractable volume of 1.6 ml of 150 mg/ml of tafoxiparin or placebo. For subjects receiving 75 mg of tafoxiparin, one vial will contain active substance and one containing placebo. For subjects receiving 150 mg of tafoxiparin, both vials will contain active substance. One dose is a reserve dose in case a dose is rendered unusable. The investigational product should be administered subcutaneously every 24±3 hours by the site staff for up to 7 doses, or until partus. At each dosing time, 0.5 ml of the drug will be extracted from each of the 2 vials and injected as separate s.c. injections in the abdominal or hip region. […]

[1] = 150 mg, n = 85, listed as tafoxiparin
[2] = 150 mg, women with spontaneous onset of labor, of 36
[3] = 300 mg, n = 91, listed as tafoxiparin
[4] = 300 mg, women with spontaneous onset of labor, of 37

tafoxiparin
Labor induced with PGE-1, percent of subjects [1]: 8.2%
Fetal distress as indication for operative delivery (ODFD), percent of patients (150 mg, n = 85): 23.5%
Percent of patients with operative delivery (150 mg, n = 85): 48.2%
Labor induced with oxytocin, percent of subjects (150 mg, n = 85): (44.7%)
Labor induced with oxytocin, percent of subjects [1]: 44.7%
Labor induced with amniotomy, percent of subjects (150 mg, n = 85): (45.9%)
Labor induced with amniotomy, percent of subjects [1]: 45.9%
Labor induction with Balloon catheter, percent of subjects (150 mg, n = 85): (43.5%)
Labor induction with Balloon catheter, percent of subjects [1]: 43.5%
Labor induced, percent of subjects (150 mg, n = 85): (56.5%)
Labor induced, percent of subjects [1]: 56.5%
number of women reaching spontaneous onset of labor with uncomplicated delivery (150 mg, of 32 women): 23 women
proportion of women reaching spontaneous onset of labor with uncomplicated delivery (150 mg, of 32 women): 71.9%
number of women needing instrumental delivery or caesarian section to reach partus (150 mg, of 36 women): 13 women
number reaching partus by vaginal delivery with no need for instrumental delivery nor caesarian section (150 mg, of 36 women): 23 women
number of women achieving spontaneous onset of labor (150 mg, of 85 women): 36 women
number of women needing instrumental delivery (150 mg, of 32 women): 9 women
proportion reaching partus by vaginal delivery with no need for instrumental delivery nor caesarian section [2]: 63.9%
proportion of women needing instrumental delivery or caesarian section to reach partus [2]: 36.1%
proportion of women needing instrumental delivery (150 mg, women with spontaneous onset of labor, of 32, p 0.422): 28.1%
time point of spontaneous onset of labor (change of Bishop score) (300 mg and 150 mg vs 75 mg and placebo, FIG. 3): achieved spontaneous onset of labor at an earlier time point
proportion of women achieving spontaneous onset of labor (300 mg daily s.c., of 90 women, p=0.089, placebo 28.7%, FIG. 1): 41.1%
number of subjects (women) that reach spontaneous onset of labor (300 mg, Study day 1): 2
percent of subjects (women) that reach spontaneous onset of labor (300 mg, Study day 1): (5%)
number of subjects (women) that reach spontaneous onset of labor (300 mg, Study day 2): 11
percent of subjects (women) that reach spontaneous onset of labor (300 mg, Study day 2): (30%)
number of subjects (women) that reach spontaneous onset of labor (300 mg, Study day 3): 18
percent of subjects (women) that reach spontaneous onset of labor (300 mg, Study day 3): (49%)
number of subjects (women) that reach spontaneous onset of labor (300 mg, Study day 4): 23
percent of subjects (women) that reach spontaneous onset of labor (300 mg, Study day 4): (62%)
number of subjects (women) that reach spontaneous onset of labor (300 mg, Study day 5): 30
percent of subjects (women) that reach spontaneous onset of labor (300 mg, Study day 5): (81%)
number of subjects (women) that reach spontaneous onset of labor (300 mg, Study day 6): 34
percent of subjects (women) that reach spontaneous onset of labor (300 mg, Study day 6): (92%)
number of subjects (women) that reach spontaneous onset of labor (300 mg, Study day 7): 37
percent of subjects (women) that reach spontaneous onset of labor (300 mg, Study day 7): (100%)
Fetal distress as indication for operative delivery (ODFD), number of patients (300 mg, n = 91): 11
Labor induced with PGE-1, number of subjects (300 mg, n = 91): 5
Labor induced with amniotomy, number of subjects (300 mg, n = 91): 50
Labor induced with oxytocin, number of subjects (300 mg, n = 91): 45
Labor induction with Balloon catheter, number of subjects (300 mg, n = 91): 42
Labor induced, number of subjects (300 mg, n = 91, onset of labor with intervention): 53
Labor induced with PGE-1, percent of subjects (300 mg, n = 91): (5.5%)
Labor induced with PGE-1, percent of subjects [3]: 5.5%
Fetal distress as indication for operative delivery (ODFD), percent of patients (300 mg, n = 91): 12.1%
Percent of patients with operative delivery (300 mg, n = 91): 35.2%
Labor induced with oxytocin, percent of subjects (300 mg, n = 91): (49.5%)
Labor induced with oxytocin, percent of subjects [3]: 49.5%
Labor induced with amniotomy, percent of subjects (300 mg, n = 91): (54.9%)
Labor induced with amniotomy, percent of subjects [3]: 54.9%
Labor induction with Balloon catheter, percent of subjects (300 mg, n = 91): (46.2%)
Labor induction with Balloon catheter, percent of subjects [3]: 46.2%
Labor induced, percent of subjects (300 mg, n = 91): (58.2%)
Labor induced, percent of subjects [3]: 58.2%
number of women reaching spontaneous onset of labor with uncomplicated delivery (300 mg, of 33 women): 27 women
proportion of women reaching spontaneous onset of labor with uncomplicated delivery (300 mg, of 33 women): 81.8%
number of women needing instrumental delivery or caesarian section to reach partus (300 mg, of 37 women): 10 women
number reaching partus by vaginal delivery with no need for instrumental delivery nor caesarian section (300 mg, of 37 women): 27 women
number of women achieving spontaneous onset of labor (300 mg, of 90 women): 37 women
number of women needing instrumental delivery (300 mg, of 33 women): 6 women
proportion reaching partus by vaginal delivery with no need for instrumental delivery nor caesarian section [4]: 73%
proportion of women needing instrumental delivery or caesarian section to reach partus [4]: 27%
proportion of women needing instrumental delivery (300 mg, women with spontaneous onset of labor, of 33, p=0.048): 18.2%
achieving spontaneous onset of labor (conclusion) (all three doses 300 mg, 150 mg and 75 mg): effective for achieving spontaneous onset of labor
mode of partus (conclusion) (all three doses 300 mg, 150 mg and 75 mg, compared to placebo): effective for a person to reach partus by vaginal delivery and with less need for instrumental delivery or caesarian section
need for instrumental delivery (conclusion) (all three doses (300 mg, 150 mg and 75 mg), women with spontaneous onset of labor, vs placebo): effective in reducing the need for instrumental delivery
need for intervention to achieve onset of labor (conclusion) (all three doses, compared to placebo): reduced the need for intervention in order to achieve onset of labor
effect on cervical ripening (doses 300 mg and 150 mg, FIG. 3): beneficial effect on cervical ripening
estimated cervical ripening rate measured by Bishop score (first 7 days of treatment, all three doses (300 mg, 150 mg and 75 mg) compared to placebo, FIG. 6): higher
labor time up to vaginal delivery (partus) (women with spontaneous onset of labor, 300 mg (p=0.070), 150 mg (p 0.654), 75 mg (p 0.114) vs placebo, FIG. 2): shorter labor time up to vaginal delivery (partus) compared to placebo
